Measurements taken from PMC3961306, “Comparison of the Cancer Gene Targeting and Biochemical Selectivities of All Targeted Kinase Inhibitors Approved for Clinical Use” (PLoS ONE, 2014).

Experiments:
Experiment in all cases: Kinase profiling in a biochemical assay panel (mobility shift assays and ELISA), %-inhibition at 1 μM; selectivity entropy
[1] = target: panel of more than 300 wild-type and mutant kinases (313 kinase panel) (Homo sapiens, UniProt P51617)
[2] = target: panel of more than 300 wild-type and mutant kinases (313 kinase panel) (Homo sapiens, UniProt P10721, V654A)
[3] = target: panel of more than 300 wild-type and mutant kinases (313 kinase panel) (Homo sapiens, UniProt Q05397); details: kinase FAK; compound at 1 μM
[4] = target: T1, panel of more than 300 wild-type and mutant kinases (313 kinase panel) (Homo sapiens, UniProt Q12851)
T1 sequence (Q12851 1-820): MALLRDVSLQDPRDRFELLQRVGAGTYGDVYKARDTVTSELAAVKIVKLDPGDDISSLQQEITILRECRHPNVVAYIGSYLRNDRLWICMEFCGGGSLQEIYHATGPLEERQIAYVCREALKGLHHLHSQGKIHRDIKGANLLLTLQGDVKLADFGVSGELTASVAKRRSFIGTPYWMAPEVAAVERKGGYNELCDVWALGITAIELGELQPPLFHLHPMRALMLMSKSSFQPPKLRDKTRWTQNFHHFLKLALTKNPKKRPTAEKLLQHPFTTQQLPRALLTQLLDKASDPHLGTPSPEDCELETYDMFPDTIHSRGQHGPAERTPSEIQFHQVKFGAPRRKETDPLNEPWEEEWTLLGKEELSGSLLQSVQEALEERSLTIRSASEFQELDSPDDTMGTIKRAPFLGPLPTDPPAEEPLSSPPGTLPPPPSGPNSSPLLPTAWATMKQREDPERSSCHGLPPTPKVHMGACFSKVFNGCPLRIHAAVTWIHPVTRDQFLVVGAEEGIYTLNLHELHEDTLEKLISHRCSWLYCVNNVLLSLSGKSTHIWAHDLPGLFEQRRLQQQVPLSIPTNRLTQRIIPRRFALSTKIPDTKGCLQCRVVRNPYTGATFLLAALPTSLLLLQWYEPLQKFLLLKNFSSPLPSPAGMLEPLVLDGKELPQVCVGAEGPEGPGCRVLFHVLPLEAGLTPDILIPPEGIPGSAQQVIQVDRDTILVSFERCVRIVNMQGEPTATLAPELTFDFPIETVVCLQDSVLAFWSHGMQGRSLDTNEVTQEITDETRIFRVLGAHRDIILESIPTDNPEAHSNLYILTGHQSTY

[5] = target: panel of more than 300 wild-type and mutant kinases (313 kinase panel) (Homo sapiens, UniProt P23458)
[6] = target: panel of more than 300 wild-type and mutant kinases (313 kinase panel) (Homo sapiens, UniProt P24723)
[7] = target: panel of more than 300 wild-type and mutant kinases (313 kinase panel) (Homo sapiens, UniProt Q9Y243)
[8] = target: panel of more than 300 wild-type and mutant kinases (313 kinase panel) (Homo sapiens, UniProt Q86V86)
[9] = target: T2, panel of more than 300 wild-type and mutant kinases (313 kinase panel) (Homo sapiens, UniProt P30530)
T2 sequence (P30530 26-894): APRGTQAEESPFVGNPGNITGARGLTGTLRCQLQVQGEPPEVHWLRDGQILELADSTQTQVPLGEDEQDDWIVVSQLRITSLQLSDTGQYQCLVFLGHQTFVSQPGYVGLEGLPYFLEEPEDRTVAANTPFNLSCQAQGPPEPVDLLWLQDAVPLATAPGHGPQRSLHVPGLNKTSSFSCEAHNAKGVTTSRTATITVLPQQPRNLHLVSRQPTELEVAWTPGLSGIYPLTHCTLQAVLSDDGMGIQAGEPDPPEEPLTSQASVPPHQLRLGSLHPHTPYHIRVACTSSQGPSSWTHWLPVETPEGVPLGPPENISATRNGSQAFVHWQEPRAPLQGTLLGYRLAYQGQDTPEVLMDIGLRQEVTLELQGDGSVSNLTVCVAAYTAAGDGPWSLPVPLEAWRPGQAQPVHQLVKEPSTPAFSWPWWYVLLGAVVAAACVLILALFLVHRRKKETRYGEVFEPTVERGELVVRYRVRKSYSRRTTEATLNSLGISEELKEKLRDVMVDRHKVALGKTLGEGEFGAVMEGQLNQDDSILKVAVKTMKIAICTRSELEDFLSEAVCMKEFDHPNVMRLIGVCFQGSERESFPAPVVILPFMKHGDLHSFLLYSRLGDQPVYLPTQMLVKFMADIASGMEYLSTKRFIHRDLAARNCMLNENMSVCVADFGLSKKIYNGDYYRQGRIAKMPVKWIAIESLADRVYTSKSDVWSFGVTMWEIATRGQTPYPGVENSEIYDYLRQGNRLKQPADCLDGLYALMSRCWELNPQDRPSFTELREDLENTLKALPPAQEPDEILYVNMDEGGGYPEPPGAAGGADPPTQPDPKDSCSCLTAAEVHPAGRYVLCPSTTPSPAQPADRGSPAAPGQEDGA

[10] = target: panel of more than 300 wild-type and mutant kinases (313 kinase panel) (Homo sapiens, UniProt Q9Y6E0)
[11] = kinase KIT(V654A), compound at 1 μM
[12] = kinase MAP4K2, compound at 1 μM

panel of more than 300 wild-type and mutant kinases (313 kinase panel) (Homo sapiens, UniProt Q9Y243), sequence (Q9Y243 whole entry, change not shown): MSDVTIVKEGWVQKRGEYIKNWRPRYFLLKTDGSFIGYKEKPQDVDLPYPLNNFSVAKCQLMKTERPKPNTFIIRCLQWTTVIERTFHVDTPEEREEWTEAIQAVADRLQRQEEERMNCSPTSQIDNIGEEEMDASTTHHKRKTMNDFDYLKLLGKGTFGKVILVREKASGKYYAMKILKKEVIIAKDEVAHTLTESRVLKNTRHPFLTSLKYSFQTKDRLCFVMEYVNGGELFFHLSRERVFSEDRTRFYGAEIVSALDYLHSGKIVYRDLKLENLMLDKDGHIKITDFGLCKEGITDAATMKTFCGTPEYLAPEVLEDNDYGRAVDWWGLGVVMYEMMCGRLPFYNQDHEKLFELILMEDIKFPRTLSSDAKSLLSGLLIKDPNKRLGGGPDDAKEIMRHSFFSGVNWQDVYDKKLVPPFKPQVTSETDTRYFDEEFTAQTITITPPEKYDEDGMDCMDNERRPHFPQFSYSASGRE
panel of more than 300 wild-type and mutant kinases (313 kinase panel) (Homo sapiens, UniProt P24723), sequence (P24723 whole entry, change not shown): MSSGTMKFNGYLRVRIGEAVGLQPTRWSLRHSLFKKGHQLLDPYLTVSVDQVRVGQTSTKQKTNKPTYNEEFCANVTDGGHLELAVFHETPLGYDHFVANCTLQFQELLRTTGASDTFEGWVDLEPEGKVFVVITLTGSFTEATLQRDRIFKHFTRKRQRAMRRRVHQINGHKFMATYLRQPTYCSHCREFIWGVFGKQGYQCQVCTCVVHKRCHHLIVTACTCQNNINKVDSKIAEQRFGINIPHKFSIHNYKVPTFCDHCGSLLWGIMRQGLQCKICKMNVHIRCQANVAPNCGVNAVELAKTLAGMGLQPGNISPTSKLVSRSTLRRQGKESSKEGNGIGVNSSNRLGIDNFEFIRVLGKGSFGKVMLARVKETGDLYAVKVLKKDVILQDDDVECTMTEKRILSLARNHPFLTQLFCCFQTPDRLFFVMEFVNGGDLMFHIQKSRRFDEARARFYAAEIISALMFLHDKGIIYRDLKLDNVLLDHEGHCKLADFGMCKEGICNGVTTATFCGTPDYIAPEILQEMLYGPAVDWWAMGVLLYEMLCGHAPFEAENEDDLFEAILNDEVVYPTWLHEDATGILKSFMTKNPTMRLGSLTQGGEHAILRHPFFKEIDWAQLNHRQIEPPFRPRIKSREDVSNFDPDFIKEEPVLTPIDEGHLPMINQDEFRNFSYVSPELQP
panel of more than 300 wild-type and mutant kinases (313 kinase panel) (Homo sapiens, UniProt P10721, V654A), sequence (P10721 26-976 V654A): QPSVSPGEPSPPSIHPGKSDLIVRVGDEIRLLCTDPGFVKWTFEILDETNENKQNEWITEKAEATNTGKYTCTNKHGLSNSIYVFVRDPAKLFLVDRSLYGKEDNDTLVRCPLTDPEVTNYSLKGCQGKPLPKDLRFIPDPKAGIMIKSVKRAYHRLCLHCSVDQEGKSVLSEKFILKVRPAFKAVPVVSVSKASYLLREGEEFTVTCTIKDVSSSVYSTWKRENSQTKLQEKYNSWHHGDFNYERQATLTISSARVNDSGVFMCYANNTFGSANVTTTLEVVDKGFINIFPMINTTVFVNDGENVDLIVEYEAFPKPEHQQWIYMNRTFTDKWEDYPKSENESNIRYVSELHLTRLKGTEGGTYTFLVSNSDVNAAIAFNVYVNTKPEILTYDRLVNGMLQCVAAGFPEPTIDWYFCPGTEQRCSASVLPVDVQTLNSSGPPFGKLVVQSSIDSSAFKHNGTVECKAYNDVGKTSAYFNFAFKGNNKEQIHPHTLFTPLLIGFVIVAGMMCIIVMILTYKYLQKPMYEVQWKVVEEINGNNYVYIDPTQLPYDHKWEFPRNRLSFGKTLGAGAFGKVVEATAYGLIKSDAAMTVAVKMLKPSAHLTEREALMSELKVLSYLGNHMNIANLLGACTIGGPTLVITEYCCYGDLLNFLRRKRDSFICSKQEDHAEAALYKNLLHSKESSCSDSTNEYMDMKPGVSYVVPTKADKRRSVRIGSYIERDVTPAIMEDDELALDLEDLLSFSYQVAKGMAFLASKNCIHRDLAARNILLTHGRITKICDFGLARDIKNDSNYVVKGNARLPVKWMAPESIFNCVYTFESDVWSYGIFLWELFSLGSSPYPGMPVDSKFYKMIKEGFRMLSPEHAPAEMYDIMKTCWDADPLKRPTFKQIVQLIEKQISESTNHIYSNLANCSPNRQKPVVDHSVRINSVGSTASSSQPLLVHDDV

Structure (SMILES) | %-inhibition of IRAK1 ([1]; kinase IRAK1, compound at 1 μM) [%] | %-inhibition of KIT(V654A) [2, 11] [%] | %-inhibition of FAK [3] [%] | %-inhibition of MAP4K2 [4, 12] [%] | %-inhibition of JAK1 ([5]; kinase JAK1, compound at 1 μM) [%] | %-inhibition of PKCη ([6]; kinase PKCη, 1 μM) [%] | %-inhibition, AKT3 ([7]; kinase AKT3, 1 μM compound) [%] | %-inhibition of PIM3 ([8]; kinase PIM3, 1 μM) [%] | %-inhibition, AXL ([9]; kinase AXL, 1 μM compound) [%] | %-inhibition of MST3 ([10]; kinase MST3, 1 μM) [%] | %-inhibition of IRAK1 ([1]; 1 µM) [%] | %-inhibition, AKT3 ([7]; 1 µM) [%] | %-inhibition of KIT(V654A) ([2]; 1 µM) [%] | %-inhibition of PIM3 ([8]; 1 µM) [%] | %-inhibition of MAP4K2 ([4]; 1 µM) [%] | %-inhibition of JAK1 ([5]; 1 µM) [%] | %-inhibition of PKCη ([6]; 1 µM) [%] | %-inhibition, AXL ([9]; 1 µM) [%] | %-inhibition of MST3 ([10]; 1 µM) [%]
COc1cc(Nc2c(C#N)cnc3cc(OCCCN4CCN(C)CC4)c(OC)cc23)c(Cl)cc1Cl [bosutinib] | 12 | 8 | 22 | 98 | -2 | 1.14 | – | – | – | – | – | – | – | – | – | – | – | – | –
COc1cc2nccc(Oc3ccc(NC(=O)C4(C(=O)Nc5ccc(F)cc5)CC4)cc3)c2cc1OC [cabozantinib] | 14 | 97 | 10 | 35 | -1.59 | 8.55 | -3 | 0.402 | 100 | 0.432 | – | – | – | – | – | – | – | – | –
C[C@@H](Oc1cc(-c2cnn(C3CCNCC3)c2)cnc1N)c1c(Cl)ccc(F)c1Cl [crizotinib] | – | -3.75 | 90 | – | 47 | -8 | -1.83 | -4 | – | 11 | – | – | – | – | – | – | – | – | –
CC(C)(C)c1nc(-c2cccc(NS(=O)(=O)c3c(F)cccc3F)c2F)c(-c2ccnc(N)n2)s1 [dabrafenib] | -48 | -3.17 | 13 | 8 | 5.7 | 9 | – | 9 | 30 | 0.532 | – | – | – | – | – | – | – | – | –
Cc1nc(Nc2ncc(C(=O)Nc3c(C)cccc3Cl)s2)cc(N2CCN(CCO)CC2)n1 [dasatinib] | 2.75 | – | – | – | – | 3 | – | -1.78 | – | 20 | – | – | – | – | – | – | – | – | –
C#Cc1cccc(Nc2ncnc3cc(OCCOC)c(OCCOC)cc23)c1 [erlotinib] | – | – | – | – | – | – | – | – | – | – | -1.65 | 8 | 1.65 | 0.333 | 9 | 8 | 6.34 | 18 | 3.69
CS(=O)(=O)CCNCc1ccc(-c2ccc3ncnc(Nc4ccc(OCc5cccc(F)c5)c(Cl)c4)c3c2)o1 [lapatinib] | 3 | – | 10 | 11 | -3 | 2.46 | 5 | -3.44 | – | -1.84 | – | – | – | – | – | – | – | 19 | –
Cc1ccc(C(=O)Nc2ccc(CN3CCN(C)CC3)c(C(F)(F)F)c2)cc1C#Cc1cnc2cccnn12 [ponatinib] | 79 | – | – | 99 | 99 | 5.45 | – | – | 70 | – | – | – | – | – | – | – | – | – | –
CNC(=O)c1cc(Oc2ccc(NC(=O)Nc3ccc(Cl)c(C(F)(F)F)c3)c(F)c2)ccn1 [regorafenib] | 16 | – | -1.14 | 46 | 31 | -9 | -4.23 | -6.53 | 29 | -6.62 | – | – | – | – | – | – | – | – | –
N#CC[C@H](C1CCCC1)n1cc(-c2ncnc3[nH]ccc23)cn1 [ruxolitinib] | 50 | -10 | -1 | 7 | – | -1.36 | 2 | -9 | 12 | -1.15 | – | – | – | – | – | – | – | – | –
CCN(CC)CCNC(=O)c1c(C)[nH]c(/C=C2\C(=O)Nc3ccc(F)cc32)c1C [sunitinib] | 90 | – | – | 85 | – | – | – | 21 | 98 | – | – | – | – | – | – | – | – | – | –
COc1cc2c(Nc3ccc(Br)cc3F)ncnc2cc1OCC1CCN(C)CC1 [vandetanib] | 46 | – | -2.11 | – | -3.31 | -9 | -0.887 | -6 | – | 7 | – | – | – | – | – | – | – | – | –
